Experimental data reported in patent US20230303547A1, “N-CYANOPYRROLIDINES WITH ACTIVITY AS USP30 INHIBITORS” (MISSION THERAPEUTICS LIMITED, priority 2020, published 2023).
Like-named read-outs stand apart in the source and are kept apart here.

Tests used:
USP30 = USP30 (Homo sapiens (Human), UniProt Q70CQ3); assay: USP30 biochemical IC50 assay (fluorescence polarisation)
Experimental: It is generally desirable to maximise the potency of a drug molecule against the target enzyme in relevant assays in order to lower the effective/efficacious dosage that is to be administered to patients. Compounds of the invention may be tested for USP30 affinity using the in vitro biochemical fluorescence polarization (FP) assay described herein.
Dilution plates were prepared at 21 times the final concentration (2100 µM for a final concentration of 100 µM) in 50% DMSO in a 96-well polypropylene V-bottom plate (Greiner #651201). A typical 8-point dilution series would be 100, 30, 10, 3, 1, 0.3, 0.1, 0.03 µM final. Reactions were performed in duplicate in black 384 well plates (small volume, Greiner 784076) in a final reaction volume of 21 µl. Either 1 µl of 50% DMSO or diluted compound was added to the plate. USP30 (Boston Biochem #E582) was diluted in reaction buffer (40 mM Tris, pH 7.5, 0.005% Tween 20, 0.5 mg/ml BSA, 5 mM beta-mercaptoethanol) to achieve a final assay concentration of 4 nM, and 10 µl of diluted USP30 was added to the compound. Enzyme and compound were incubated for 30 min at room temp. Reactions were initiated by the addition of 50 nM of TAMRA labelled peptide linked to ubiquitin via an iso-peptide bond as fluorescence polarisation substrate. Reactions were read immediately after addition of substrate and following a 2-hour incubation at room temperature. Readings were performed on a Pherastar Plus (BMG Labtech). λ Excitation 540 nm; λ Emission 590 nm.

UCHL1 = UCHL1 (Homo sapiens (Human), UniProt P09936); assay: UCHL1 DUB IC50; type: biochemical; details: for DUB selectivity preference for USP30 v UCHL1: fold
Sequence of UCHL1 (P09936 whole entry, species assumed): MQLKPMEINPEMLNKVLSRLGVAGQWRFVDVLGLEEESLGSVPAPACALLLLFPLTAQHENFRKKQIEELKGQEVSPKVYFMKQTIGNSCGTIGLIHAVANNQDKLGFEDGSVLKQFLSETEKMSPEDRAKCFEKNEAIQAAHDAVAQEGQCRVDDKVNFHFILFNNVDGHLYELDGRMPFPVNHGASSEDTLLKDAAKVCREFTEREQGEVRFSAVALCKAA

[1] = tested on: USP2, USP6, USP10, USP15, USP16, USP21, USP25, USP28, USP46/UAF1; assay: DUB selectivity panel IC50; type: biochemical; details: for DUB selectivity preference for USP30 v 9 DUBs: fold, minimum over nine DUBs; for IC50: range over the nine DUBs
Cathepsin B = Cathepsin B (Homo sapiens (Human), UniProt P07858); assay: Cathepsin B IC50; type: biochemical
Cathepsin K = Cathepsin K (Homo sapiens (Human), UniProt P43235); assay: Cathepsin K IC50; type: biochemical
Sequence of Cathepsin K (P43235 115-329, species assumed): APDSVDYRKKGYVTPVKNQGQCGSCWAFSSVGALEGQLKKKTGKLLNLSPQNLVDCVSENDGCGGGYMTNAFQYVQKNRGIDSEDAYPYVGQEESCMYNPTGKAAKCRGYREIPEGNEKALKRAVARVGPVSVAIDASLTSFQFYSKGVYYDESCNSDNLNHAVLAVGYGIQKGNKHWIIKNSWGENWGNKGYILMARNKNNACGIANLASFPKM

Cathepsin L = Cathepsin L (Homo sapiens (Human), UniProt P07711); assay: Cathepsin L IC50; type: biochemical
Sequence of Cathepsin L (P07711 114-333, species assumed): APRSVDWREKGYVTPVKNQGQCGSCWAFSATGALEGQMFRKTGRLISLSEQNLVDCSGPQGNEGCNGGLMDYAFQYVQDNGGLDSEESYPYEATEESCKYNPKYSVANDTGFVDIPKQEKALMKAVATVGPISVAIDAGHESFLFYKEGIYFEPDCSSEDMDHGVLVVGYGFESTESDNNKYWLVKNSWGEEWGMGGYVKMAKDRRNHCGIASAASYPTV

Cathepsin S = Cathepsin S (Homo sapiens (Human), UniProt P25774); assay: Cathepsin S IC50; type: biochemical
Sequence of Cathepsin S (P25774 115-331, species assumed): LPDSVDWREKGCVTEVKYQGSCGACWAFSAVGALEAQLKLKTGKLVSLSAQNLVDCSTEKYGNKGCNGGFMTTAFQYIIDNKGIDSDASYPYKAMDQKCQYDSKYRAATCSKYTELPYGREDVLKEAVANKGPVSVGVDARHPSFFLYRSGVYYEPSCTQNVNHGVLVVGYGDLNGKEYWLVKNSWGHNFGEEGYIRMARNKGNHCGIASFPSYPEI

Cathepsin V = Cathepsin V (Homo sapiens (Human), UniProt O60911); assay: Cathepsin V IC50; type: biochemical
Sequence of Cathepsin V (O60911 114-334, species assumed): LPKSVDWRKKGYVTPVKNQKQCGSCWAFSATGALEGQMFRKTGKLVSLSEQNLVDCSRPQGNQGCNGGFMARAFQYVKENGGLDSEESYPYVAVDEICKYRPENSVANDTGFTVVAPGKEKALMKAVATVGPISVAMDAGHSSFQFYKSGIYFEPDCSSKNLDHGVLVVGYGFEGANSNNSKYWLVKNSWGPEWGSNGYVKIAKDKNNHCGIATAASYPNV

[2] = tested on: cathepsins (B, K, L, S and V); assay: Cathepsin panel summary; type: biochemical; details: for Selectivity preference for USP30 v cathepsins: fold; for IC50: summary over the five cathepsins
[3] = USP30 biochemical IC50 assay, read-out: IC50
[4] = reference examples, USP30 biochemical IC50 assay, read-out: USP30 IC50

Sequence of USP30 (Q70CQ3 57-517): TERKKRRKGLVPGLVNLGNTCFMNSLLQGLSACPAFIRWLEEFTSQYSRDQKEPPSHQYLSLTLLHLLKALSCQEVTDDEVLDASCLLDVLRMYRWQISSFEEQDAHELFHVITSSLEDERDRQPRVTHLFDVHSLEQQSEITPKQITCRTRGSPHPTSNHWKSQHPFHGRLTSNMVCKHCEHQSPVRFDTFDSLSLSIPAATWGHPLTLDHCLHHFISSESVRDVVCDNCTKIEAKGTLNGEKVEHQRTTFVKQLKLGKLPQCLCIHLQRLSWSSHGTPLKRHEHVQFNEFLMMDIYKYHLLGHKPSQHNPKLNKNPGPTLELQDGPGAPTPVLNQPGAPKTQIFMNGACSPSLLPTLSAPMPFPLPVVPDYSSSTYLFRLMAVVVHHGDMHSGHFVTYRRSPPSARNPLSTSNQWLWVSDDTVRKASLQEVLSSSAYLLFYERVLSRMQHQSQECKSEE

| IC50 (USP30; [3]) [µM] | IC50 (UCHL1) [µM] | DUB selectivity preference for USP30 v UCHL1 (UCHL1) | IC50 (Cathepsin B) [µM] | IC50 (Cathepsin K) [µM] | IC50 (Cathepsin L) [µM] | IC50 (Cathepsin S) [µM] | IC50 (Cathepsin V) [µM] | IC50 [2] [µM] | SMILES | DUB selectivity preference for USP30 v 9 DUBs [1] | Selectivity preference for USP30 v cathepsins [2] | further results |
| --- | --- | --- | --- | --- | --- | --- | --- | --- | --- | --- | --- | --- |
| 0.003 | – | – | – | – | – | – | – | – | COC[C@@H]1C[C@@H](NC(=O)c2ncc(-c3cc(C#N)ccc3OC)o2)CN1C#N [Example 5, 5-(5-cyano-2-methoxyphenyl)-N-((3R,5S)-1-cyano-5-(methoxymethyl)pyrrolidin-3-yl)oxazole-2-carboxamide] | – | – | – |
| – | 0.21 | 1.3 | – | – | – | – | – | – | COc1cc(-c2cnc(NC(=O)[C@H]3CCN(C#N)C3)s2)ccc1C#N [C, reference compound] | – | – | IC50 (USP30; read-out: DUB IC50 USP30): 0.16 µM; IC50 (USP30; [4]): 0.16 µM |
| 0.068 | > 300 | greater than 4412 | > 300 | > 300 | > 300 | > 300 | 190 | ≥ 189 | COC[C@H]1C[C@@H](NC(=O)c2nc(-c3cc(C#N)ccc3OC3CC3)co2)CN1C#N [Example 12, 4-(5-cyano-2-cyclopropoxyphenyl)-N-((3R,5R)-1-cyano-5-(methoxymethyl)pyrrolidin-3-yl)oxazole-2-carboxamide] | ≥ 110 | ≥ 2788 | DUB selectivity preference for USP30 v UCHL1 (UCHL1; listed as Ex. 12): > 4412 |
| – | > 300 | – | > 300 | 165 | 294 | > 300 | > 300 | – | COc1ccc(C#N)cc1-c1cnc(C(=O)N[C@@H]2C[C@@H](C)N(C#N)C2)o1 [Example 4, 5-(5-cyano-2-methoxyphenyl)-N-((3R,5R)-1-cyano-5-methylpyrrolidin-3-yl)oxazole-2-carboxamide] | – | – | – |
| 0.003 | > 300 | – | 60.9 | 14.9 | 13.8 | > 30 | 12.1 | ≥ 12.1 | COC[C@@H]1C[C@@H](NC(=O)c2ncc(-c3cc(C#N)ccc3OC(F)(F)F)o2)CN1C#N [Example 7, 5-(5-cyano-2-(trifluoromethoxy)phenyl)-N-((3R,5S)-1-cyano-5-(methoxymethyl)pyrrolidin-3-yl)oxazole-2-carboxamide] | ≥ 1333 | ≥ 4033 | IC50 (USP30; read-out: DUB IC50 USP30): 0.003 µM |
| – | 0.52 | 3.0 | – | – | – | – | – | – | N#Cc1ccc(-c2cnc(NC(=O)[C@H]3CCN(C#N)C3)s2)cc1OC(F)(F)F [B, reference compound] | – | – | – |
| – | – | 1.5 | – | – | – | – | – | – | CC1CC(C(=O)Nc2ncc(-c3ccccc3)s2)CN1C#N (centres unmarked) [Reference Example E, reference compound] | – | – | – |
| – | – | – | – | – | 2.9 | – | – | 0.79 to 8.8 | COc1cccc(-c2cc(C(=O)N[C@@H]3CCN(C#N)C3)on2)c1 [Reference Example A, reference compound] | ≥ 2.2 | 11.6 - 129 | IC50 (USP30; read-out: DUB IC50 USP30): 0.068 µM; IC50 (USP30; [4]): 0.068 µM; IC50 [1]: 0.15 to 22.4 µM; fold more potent against USP30 than against cathepsin K (Cathepsin K): 11.6 fold |
| 0.01 | > 300 | – | 83 | 100 | 15.4 | 130 | > 100 | ≥ 15.4 | COC[C@H]1C[C@@H](NC(=O)c2ncc(-c3cc(C#N)ccc3OC3CC3)o2)CN1C#N [Example 11, 5-(5-cyano-2-cyclopropoxyphenyl)-N-((3R,5R)-1-cyano-5-(methoxymethyl)pyrrolidin-3-yl)oxazole-2-carboxamide] | ≥ 7820 | ≥ 1540 | – |
| 0.004 | – | – | – | – | – | – | – | – | C[C@@H]1C[C@@H](NC(=O)c2ncc(-c3cc(C#N)ccc3OC(F)(F)F)o2)CN1C#N [Example 8, 5-(5-cyano-2-(trifluoromethoxy)phenyl)-N-((3R,5R)-1-cyano-5-methylpyrrolidin-3-yl)oxazole-2-carboxamide] | – | – | – |
| 0.002 | – | – | – | – | – | – | – | – | COc1cc(F)c(C#N)cc1-c1cnc(C(=O)N[C@@H]2C[C@@H](C)N(C#N)C2)o1 [Example 9, 5-(5-cyano-4-fluoro-2-methoxyphenyl)-N-((3R,5R)-1-cyano-5-methylpyrrolidin-3-yl)oxazole-2-carboxamide] | – | – | – |
| 0.002 | > 300 | – | 52.1 | 40.4 | 39.8 | 64.8 | 91.6 | ≥ 39.8 | COC[C@@H]1C[C@@H](NC(=O)c2nc(-c3cc(C#N)ccc3OC)co2)CN1C#N [Example 6, 4-(5-cyano-2-methoxyphenyl)-N-((3R,5S)-1-cyano-5-(methoxymethyl)pyrrolidin-3-yl)oxazole-2-carboxamide] | ≥ 700 | ≥ 19900 | IC50 (USP30; read-out: DUB IC50 USP30): 0.002 µM; IC50 [1]: 1.4 to 258 µM |
| 0.004 | – | – | – | – | – | – | – | – | COC[C@@H]1C[C@@H](NC(=O)c2nc(-c3cc(C#N)ccc3OC3CC3)co2)CN1C#N [Example 10, 4-(5-cyano-2-cyclopropoxyphenyl)-N-((3R,5S)-1-cyano-5-(methoxymethyl)pyrrolidin-3-yl)oxazole-2-carboxamide] | – | – | – |
| – | – | 0.8 | – | – | – | – | – | – | N#CN1CC[C@H](C(=O)Nc2ncc(-c3ccccc3)s2)C1 [D, reference compound] | – | – | – |
